Experimental data from publication PMC12140300, “Development of Carbon‐11 Labeled Pyrimidine Derivatives as Novel Positron Emission Tomography (PET) Agents Enabling Brain Sigma‐1 Receptor Imaging” (Advanced Science, 2025).

Molecular target: T1, σ1R (Mus musculus, UniProt O55242)
T1 construct: The PET/CT studies in mice followed previously reported procedures; from tissue; host or cells: mouse brain in vivo (C57BL/6 wild type; 5xFAD transgenic)
Assay: Mice PET/CT imaging, baseline and self-blocking
Assay type: in vivo, C57BL/6 mice
Method: PET/CT imaging studies of [^11C]CNY‐01 and [^11C]CNY‐02 were performed in male C57BL/6 mice. […] The whole‐brain time‐activity curve (TAC) of each tracer was generated. […] To investigate the binding specificity of [^11C]CNY‐01 and [^11C]CNY‐02, blocking studies were carried out by pre‐administrating mice with corresponding unlabeled ligands. […] This is due to the receptors in peripheral tissues being occupied by CNY‐01, leading to more radiotracer entering the brain and quickly washing out. […] Of note, the TACs show an increase in brain tracer uptake during the blocking studies, which could be attributed to peripheral blocking effects. To address this, we normalized the brain uptake data to the maximum radioactivity observed in the blood (input function). This normalization allowed us to account for peripheral changes in tracer availability.
Figure 3 Mice PET/CT study with [^11C]CNY‐01 and [^11C]CNY‐02. A) Representative baseline and blocking (pre‐treated with 1.0 mg kg^−1 CNY‐01) PET/CT images of [^11C]CNY‐01 focused on the brain (summed 30‒60 min, n = 4). B) Whole brain time‐activity curves of [^11C]CNY‐01 for baseline and blocking mice. C) The normalized baseline and blocking TACs of [^11C]CNY‐01 (normalized the brain uptake curves with the maximum radioactivity in the blood at each time point). D) Representative baseline and blocking (pre‐treated with 1.0 mg kg^−1 CNY‐02) PET/CT images of [^11C]CNY‐02 focused on the brain (summed 30‒60 min, n = 4). E) Whole brain time‐activity curves of [^11C]CNY‐02 for baseline and blocking mice. F) The normalized baseline and blocking TACs of [^11C]CNY‐02 (normalized the brain uptake curves with the maximum radioactivity in the blood at each time point). Data were presented as mean ± standard error of the mean (SEM). Quantification of results was performed using Student's t‐test (***p < 0.0001).
The PET/CT studies in mice followed previously reported procedures with minor modifications.^[ [53], [54] ^] Mice (wild‐type: C57BL/6, male, 6‐month‐old; AD transgenic: 5xFAD, male, 6‐month‐old, n = 4 for each group) were anesthetized with inhalational isoflurane (Patterson Vet Supply, Inc., Greeley, CO, USA) at 2.0% in a carrier of 2 L min^−1 medical oxygen, and maintained at 1.0% isoflurane during the imaging scan. Mice were injected with radiotracer (200 µL) via lateral tail vein catheterization at the start of the dynamic PET scan (Gamma Medica, Northridge, CA, USA). For blocking studies, the blocking agent was administered via the tail vein 5 min before radiotracer injection. Dynamic PET acquisition lasted 60 min and was followed by computed tomography (CT) for anatomic co‐registration. […] Reconstructed images were exported from the scanner in DICOM format and were analyzed using PMOD (PMOD 4.01).

T1 sequence (O55242 whole entry): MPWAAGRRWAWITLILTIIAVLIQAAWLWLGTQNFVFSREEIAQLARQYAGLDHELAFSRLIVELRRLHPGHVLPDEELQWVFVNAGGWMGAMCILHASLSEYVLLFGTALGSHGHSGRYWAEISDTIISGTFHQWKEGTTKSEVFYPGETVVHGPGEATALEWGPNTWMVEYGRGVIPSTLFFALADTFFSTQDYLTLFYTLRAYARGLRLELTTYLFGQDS

Cc1nc(-c2ccc(O[11CH3])cc2)nc(OCCCN2CCCCC2)c1Cl [[^11C]CNY-01]
maximum standard uptake value (SUV) in the brain (male C57BL/6 mice, baseline PET/CT): 1.3 | blocking effect, brain uptake normalized to maximum radioactivity in the blood (pre-treated with 1.0 mg kg^−1 of the corresponding unlabeled ligand): significant blocking effect
